Test results reported in patent publication US5607691A, “Compositions and methods for enhanced drug delivery” (priority 1995, dated 1997).
Where a name gives a salt, the structure may show the parent alone.

Experiment: in vitro
Assay type: in vitro ADME, human
Conditions: Table 4; human serum, 37° C.
Description: Table 4 lists the serum half-lives for several model compounds and two representative pharmaceutical agent-chemical modifier complexes using an in vitro assay system described in the Experimental section below. Of course, the serum half-lives will vary in vivo depending upon the age and health condition of the patient. Each complex comprises a model compound or a pharmaceutical agent, a spacer group, and a chemical modifier. Many of the model compounds utilize 4-nitrophenyl(ethanol, propanol, or cyclohexanol) or 4-nitrophenylethylamine as the "model" pharmaceutical agent. A more complete listing of serum half-lives may be found in the Experimental section below.
General procedure for serum hydrolysis of pharmaceutical agent-modifier complexes
Stock solutions (6 mM) of the pharmaceutical agent-modifier complexes were prepared in ethanol (by vortexing, sonication or warming at 37° C. if necessary). If required for solubility, a drop of dimethylsulfoxide, dimethylformamide or methanol may be added. (Acetonitrile cannot be used because it deactivates the serum enzymes.)
HPLC separation methods were established for each study by dilution of the above stock solution (6 μl) in acetonitrile (1 ml) to give a 36 μM solution. Samples (10 μl) were injected onto a Nucleosil 5C8 (250×4 mmID) and guard column (11×4 mm ID) and eluted with a mobile phase of approximately 65% HPLC grade water and 35% of a solution of 0.1% trifluoroacetic acid in acetonitrile, the exact proportions being adjusted in each case to give optimum separation and run times.
Freshly defrosted human serum (3 ml, Sigma) was warmed at 37° C. for five minutes and then 60 μl of the agent-modifier complex stock solution was added with vortexing. […] The aliquots were added to 800 μl of 2% zinc sulfate solution in a 1.5 ml disposable microcentrifuge tube, vortexed immediately and centrifuged at 14,000 RPM for 3 minutes. The supernatants (10 μl) were then injected onto the HPLC and peak areas were used to determine the % remaining. Serum blanks were prepared similarly by addition of serum to the zinc sulfate solution followed by centrifugation, and time=0 samples were also prepared by adding serum to the zinc sulfate solution followed by addition of the complex and separation by centrifugation. The time=0 samples, as well as the original stock solutions, were also used to study the stability of the complex in the absence of enzyme. Half-lives were calculated using the equation
by plotting time (x) vs. ln % remaining (y) to obtain the slope (m) and the y intercept (b).

For `CC(=O)OC(CC(=O)OCCCCCCCCCC(=O)OCC(=O)OC1=CC2=CC[C@H]3[C@@H]4CC[C@H](C(C)=O)[C@@]4(C)CC[C@@H]3[C@@]2(C)CC1)C[N+](C)(C)C` (some centres unmarked) [Progesterone 3-{2-O-[10-O-(O-acetylcarnitinyl)decanoyl]glycolic acid} enol ester], which “In vitro Half-Life” value is on record?
The value was 28.9 min.

Same assay, conditions: Table 5; human serum, 37° C.

For `CC(=O)OC(CC(=O)OCCCCCCCCCC(=O)OCC(=O)OC1=CC2=CC[C@H]3[C@@H]4CC[C@H](C(C)=O)[C@@]4(C)CC[C@@H]3[C@@]2(C)CC1)C[N+](C)(C)C` (some centres unmarked) [Progesterone 3-{2-O-[10-O-(O-acetylcarnitinyl)decanoyl]glycolic acid} enol ester], which “Serum Half-life” value is on record?
Its value is 28.9 min.

Which “Serum Half-life” value does the source give for `CC1OC(OC2C(C)OC(OC3C(C)OC(OC4CCC5(C)C(CCC6C5CC(OC(=O)OCOC(=O)CCCCC[N+](C)(C)C)C5(C)C(C7=CC(=O)OC7)CCC65O)C4)CC3OC(=O)OCOC(=O)CCCCC[N+](C)(C)C)CC2OC(=O)OCOC(=O)CCCCC[N+](C)(C)C)CC2OC(=O)OC12` (centres unmarked) [digoxin-3',3",12-tris-(6-trimethylaminohexanoyloxymethyl carbonate)-3'",4""-cyclic carbonate, tribromide salt] here?
The value was 840 min.

Same assay, conditions: human, serum

Which “Serum Half-life” value does the source give for `C#CC[N+](C)(C(C)Cc1ccccc1)C(C)OC(=O)CCC.[Br-]` (centres unmarked) [deprenyl-N-butyroyloxy-1-ethyl, bromide salt] here?
Its value is 28 min.

Same assay, conditions: human, serum, Table 5; human serum, 37° C.; read-out: Serum Half-life (converted)

Which half-life does the source give for `COc1ccc2c(c1)c(CC(=O)O[C@H](CC(=O)O)C[N+](C)(C)C)c(C)n2C(=O)c1ccc(Cl)cc1` [O-indomethacinyl-(L-carnitine hydrochloride)] here?
Its half-life is > 30 min.

With `CC(=O)OC1CC(C(=O)OCCc2ccc([N+](=O)[O-])cc2)[N+](C)(C)C1` (centres unmarked) [betonicine-O-acetate 4-nitrophenethyl ester] as the molecule, how does the half-life read?
Its half-life is 6 min.

Which half-life does the source give for `C#CC[N+](C)(COC(C)=O)C(C)Cc1ccccc1` (centres unmarked) [deprenyl-N-acetoxymethyl, bromide salt] here?
Its half-life is 4.2 min.

With `C#CC[N+](C)(COC(=O)c1ccccc1)C(C)Cc1ccccc1` (centres unmarked) [deprenyl-N-benzoyloxymethyl, iodide salt] as the molecule, how does the half-life read?
The half-life was 5 min.

Which half-life does the source give for `C#CC[N+](C)(COC(=O)CCC)C(C)Cc1ccccc1` (centres unmarked) [deprenyl-N-butyroyloxymethyl, iodide salt] here?
The half-life was 0.283 min.

With `C#CC[N+](C)(COC(=O)OCC)C(C)Cc1ccccc1` (centres unmarked) [deprenyl-N-ethoxycarbonyloxymethyl, iodide salt] as the molecule, how does the half-life read?
The half-life was 1.18 min.

For `C#CC[N+](C)(COC(=O)OCCCCCCCC)C(C)Cc1ccccc1` (centres unmarked) [deprenyl-N-octyloxycarbonyloxymethyl, iodide salt], which half-life is on record?
The half-life was 0.433 min.

Which half-life does the source give for `C#CC[N+](C)(COC(=O)C(C)(C)C)C(C)Cc1ccccc1` (centres unmarked) [deprenyl-N-pivaloyloxymethyl, iodide salt] here?
Its half-life is 20 min.

Which half-life does the source give for `C[C@]12CC[C@H](OC(=O)CCCCCN3CCOCC3)C[C@H]1CC[C@@H]1[C@@H]2CC[C@]2(C)[C@@H](C3=CC(=O)OC3)CC[C@]12O` [digitoxigenin-3-(6-morpholino-hexanoate)] here?
Its half-life is 14900 min.

With `CC(=O)O[C@H](CC(=O)O[C@H]1CC[C@@]2(C)[C@H](CC[C@@H]3[C@@H]2CC[C@]2(C)[C@@H](C4=CC(=O)OC4)CC[C@]32O)C1)C[N+](C)(C)C` [digitoxigenin-3-(O-acetyl-L-carnitine) ester, chloride salt] as the molecule, how does the half-life read?
Its half-life is 324 min.

Which half-life does the source give for `C[C@]12CC[C@H](OC(=O)OCC[N+](C)(C)C)C[C@H]1CC[C@@H]1[C@@H]2CC[C@]2(C)[C@@H](C3=CC(=O)OC3)CC[C@]12O` [digitoxigenin-3-(O-choline chloride carbonate) ester] here?
The half-life was 13.6 min.

For `CCCCCCCCCCCCCCCC(=O)O[C@H](CC(=O)O[C@H]1CC[C@@]2(C)[C@H](CC[C@@H]3[C@@H]2CC[C@]2(C)[C@@H](C4=CC(=O)OC4)CC[C@]32O)C1)C[N+](C)(C)C` [digitoxigenin-3-(O-palmityl-L-carnitine) ester, chloride salt], which half-life is on record?
Its half-life is ~180 min.

With `CC(=O)OC(CC(=O)NCCCCCCOC(=O)O[C@H]1[C@@H](O)C[C@H](O[C@H]2[C@@H](O)C[C@H](O[C@H]3[C@@H](O)C[C@H](O[C@H]4CC[C@@]5(C)[C@H](CC[C@@H]6[C@@H]5CC[C@]5(C)[C@@H](C7=CC(=O)OC7)CC[C@]65O)C4)O[C@@H]3C)O[C@@H]2C)O[C@@H]1C)C[N+](C)(C)C` (some centres unmarked) [digitoxin-4"'-6-[O-(acetylcarnitinamido)hexyl]carbonate ester] as the molecule, how does the half-life read?
Its half-life is 34.8 min.

For `C[C@H]1O[C@@H](O[C@H]2[C@@H](O)C[C@H](O[C@H]3[C@@H](O)C[C@H](O[C@H]4CC[C@@]5(C)[C@H](CC[C@@H]6[C@@H]5CC[C@]5(C)[C@@H](C7=CC(=O)OC7)CC[C@]65O)C4)O[C@@H]3C)O[C@@H]2C)C[C@H](O)[C@@H]1OC(=O)OCC[N+](C)(C)C` [digitoxin-4"'-(choline chloride) carbonate ester], which half-life is on record?
The half-life was 5.3 min.

With `C[C@H]1O[C@@H](O[C@H]2[C@@H](O)C[C@H](O[C@H]3[C@@H](O)C[C@H](O[C@H]4CC[C@@]5(C)[C@H](CC[C@@H]6[C@@H]5C[C@@H](OC(=O)OCOC(=O)CCCCC[N+](C)(C)C)[C@]5(C)[C@@H](C7=CC(=O)OC7)CC[C@]65O)C4)O[C@@H]3C)O[C@@H]2C)C[C@@H]2OC(=O)O[C@@H]21` [digoxin 12-(6-trimethylaminohexanoyloxymethyl carbonate)-3"',4"'-cyclic carbonate, bromide salt] as the molecule, how does the half-life read?
Its half-life is 168 min.

Which half-life does the source give for `CC1OC(OC2CCC3(C)C(CCC4C3CC(O)C3(C)C(C5=CC(=O)OC5)CCC43O)C2)CC(O)C1OC1CC(O)C(OC2CC3OC(=O)OC3C(C)O2)C(C)O1` (centres unmarked) [digoxin-3'",4'"-cyclic carbonate] here?
Its half-life is 0.15 min.

With `CC1OC(OC2C(C)OC(OC3C(C)OC(OC4CCC5(C)C(CCC6C5CC(O)C5(C)C(C7=CC(=O)OC7)CCC65O)C4)CC3OC(=O)OCOC(=O)CCCCC[N+](C)(C)C)CC2OC(=O)OCOC(=O)CCCCC[N+](C)(C)C)CC2OC(=O)OC12` (centres unmarked) [digoxin-3',3"-bis-(6-trimethylaminohexanoyloxymethyl carbonate)-3'",4'"-cyclic carbonate, bromide salt] as the molecule, how does the half-life read?
Its half-life is 600 min.

With `CC1OC(OC2C(C)OC(OC3C(C)OC(OC4CCC5(C)C(CCC6C5CC(O)C5(C)C(C7=CC(=O)OC7)CCC65O)C4)CC3OC(=O)OCC[N+](C)(C)C)CC2OC(=O)OCC[N+](C)(C)C)CC2OC(=O)OC12` (centres unmarked) [digoxin-3',3"-bis-(choline carbonate)-3'",4'"-cyclic carbonate, dibromide salt] as the molecule, how does the half-life read?
The half-life was 2040 min.

For `C[C@H]1O[C@@H](O[C@H]2[C@@H](O)C[C@H](O[C@H]3[C@@H](O)C[C@H](O[C@H]4CC[C@@]5(C)[C@H](CC[C@@H]6[C@@H]5C[C@@H](O)[C@]5(C)[C@@H](C7=CC(=O)OC7)CC[C@]65O)C4)O[C@@H]3C)O[C@@H]2C)C[C@H](O)[C@@H]1OC(=O)CCCOC(=O)CCC[N+](C)(C)C` [digoxin-4"'-4-(4-trimethylaminobutyroyloxy)butyrate, bromide salt], which half-life is on record?
Its half-life is 420 min.

Which half-life does the source give for `CCCCCCCCCCCCCCCC(=O)OC(CC(=O)NCCCCCCOC(=O)OC1C(O)CC(OC2C(O)CC(OC3C(O)CC(OC4CCC5(C)C(CCC6C5CC(O)C5(C)C(C7=CC(=O)OC7)CCC65O)C4)OC3C)OC2C)OC1C)C[N+](C)(C)C` (centres unmarked) [digoxin-4"'-6-O-palmitoylcarnitinamido)hexyl carbonate, chloride salt] here?
Its half-life is 21 min.

With `CC1OC(OC2C(O)CC(OC3C(O)CC(OC4CCC5(C)C(CCC6C5CC(O)C5(C)C(C7=CC(=O)OC7)CCC65O)C4)OC3C)OC2C)CC(O)C1OC(=O)OCCCCCCOC(=O)C[N+](C)(C)C` (centres unmarked) [digoxin-4"'-[1-(6-betainoyloxyhexyl)]carbonate, chloride salt] as the molecule, how does the half-life read?
The half-life was 21 min.

For `CC(=O)OC1CC(C(=O)O[C@H]2[C@@H](O)C[C@H](O[C@H]3[C@@H](O)C[C@H](O[C@H]4[C@@H](O)C[C@H](O[C@H]5CC[C@@]6(C)[C@H](CC[C@@H]7[C@@H]6C[C@@H](O)[C@]6(C)[C@@H](C8=CC(=O)OC8)CC[C@]76O)C5)O[C@@H]4C)O[C@@H]3C)O[C@@H]2C)[N+](C)(C)C1` (some centres unmarked) [digoxin-4"'-[(O-acetyl)-betonicine ester], chloride salt], which half-life is on record?
The half-life was 1.8 min.

With `CC1OC(OC2C(O)CC(OC3C(O)CC(OC4CCC5(C)C(CCC6C5CC(O)C5(C)C(C7=CC(=O)OC7)CCC65O)C4)OC3C)OC2C)CC(O)C1OC(=O)CCCN(C)C` (centres unmarked) [digoxin-4'"-4-(dimethylamino)butyrate] as the molecule, how does the half-life read?
The half-life was 84 min.

Which half-life does the source give for `CC1OC(OC2C(O)CC(OC3C(O)CC(OC4CCC5(C)C(CCC6C5CC(O)C5(C)C(C7=CC(=O)OC7)CCC65O)C4)OC3C)OC2C)CC(O)C1OC(=O)CCC[N+](C)(C)C` (centres unmarked) [digoxin-4'"-(4-trimethylamino)butyrate bromide] here?
Its half-life is 420 min.

For `CC(=O)OC(CC(=O)OC1C(O)CC(OC2C(O)CC(OC3C(O)CC(OC4CCC5(C)C(CCC6C5CC(O)C5(C)C(C7=CC(=O)OC7)CCC65O)C4)OC3C)OC2C)OC1C)C[N+](C)(C)C` (centres unmarked) [digoxin-4'"-(O-acetylcarnitinate) chloride salt], which half-life is on record?
The half-life was 5 min.

For `CCCCCCCCCCCCCCCC(=O)OC(CC(=O)OC1C(O)CC(OC2C(O)CC(OC3C(O)CC(OC4CCC5(C)C(CCC6C5CC(O)C5(C)C(C7=CC(=O)OC7)CCC65O)C4)OC3C)OC2C)OC1C)C[N+](C)(C)C` (centres unmarked) [digoxin-4'"-(O-palmitoylcarnitinate) chloride salt], which half-life is on record?
Its half-life is 19 min.

Same assay, conditions: human, serum, untitled table of digoxin derivatives (position/substituent); assay not given; read-out: Half Life (converted)

Which half-life does the source give for `C[C@H]1O[C@@H](O[C@H]2[C@@H](O)C[C@H](O[C@H]3[C@@H](O)C[C@H](O[C@H]4CC[C@@]5(C)[C@H](CC[C@@H]6[C@@H]5C[C@@H](OC(=O)OCOC(=O)CCCCC[N+](C)(C)C)[C@]5(C)[C@@H](C7=CC(=O)OC7)CC[C@]65O)C4)O[C@@H]3C)O[C@@H]2C)C[C@@H]2OC(=O)O[C@@H]21` [digoxin 12-(6-trimethylaminohexanoyloxymethyl carbonate)-3"',4"'-cyclic carbonate, bromide salt] here?
The half-life was 168 min.

Which half-life does the source give for `CC1OC(OC2C(C)OC(OC3C(C)OC(OC4CCC5(C)C(CCC6C5CC(O)C5(C)C(C7=CC(=O)OC7)CCC65O)C4)CC3OC(=O)OCOC(=O)CCCCC[N+](C)(C)C)CC2OC(=O)OCOC(=O)CCCCC[N+](C)(C)C)CC2OC(=O)OC12` (centres unmarked) [digoxin-3',3"-bis-(6-trimethylaminohexanoyloxymethyl carbonate)-3'",4'"-cyclic carbonate, bromide salt] here?
The half-life was 600 min.
